US6169181A, “Compounds useful to treat retroviral infections” (Pharmacia & Upjohn Company, priority 1998, dated 2001)
Values joined by “and” are separate entries in the source; they are usually repeats but may differ in a detail not shown here. Equal entries are not always repeated. Where two headings read alike, the source gives them in different places.

How the values were obtained:
HIV-1 protease [1] = molecular target: T1, HIV-1 protease (Human immunodeficiency virus type 1 group M subtype B, UniProt P04585); experiment: biochemical; settings: for inhibition at 0.123 µM / inhibition at 0.37 µM / inhibition at 1.1 µM / inhibition at 3.3 µM / inhibition at 10 µM / inhibition at 30 µM: read-out: Protease % Inhib
Method in brief: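 A substrate biotinylated at the N-terminal arginine and FITC-labelled at the C-terminal lysine was incubated with HIV-1 protease (10 μl of 0.1 μM) and compound for 1 h in the dark at room temperature. Buffer was 0.1 M sodium acetate pH 5.5, 1.0 M NaCl, 0.05% NP-40. Labelled product was separated from substrate using streptavidin beads and filtration, and the fluorescence gave percent inhibition.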

HIV-1 protease [2] = molecular target: T1, HIV-1 protease; experiment: biochemical
Experimental: The HIV protease screening assay is based on fluorescently labeled substrate which can be resolved from nonlabeled cleavage product using special beads coated with streptavidin. The substrate is biotinylated at the amino terminal arginine and fluorescently labeled with fluorescein isothiocynate (FITC) at the carboxyl terminal lysine. […] Substrate ([…] of 0.2 μM), sample (10 μl of desired concentraion), and enzyme (10 μl of 0.1 μM) are added to a 96 well pandex plate. The assay is run in 0.1 M sodium acetate buffer at pH 5.5 in the presence of 1.0 M sodium chloride and 0.05% NP-40 with incubated in the dark for one hour at room temperature. Strepavidin coated polystyrene beads {40 μl of 0.1% (w/v)} are added and the plate is incubated in the dark for an additional half hour. The labeled cleavage product is separated from the unreacted substrate via filtration and is read on the Idexx screen machine. The data are analyzed by appropriate computer algorithms to ascertain percent inhibition values.
Determination of Ki values utilizes the same materials and equipment employed for percent inhibition studies. Two-fold serial dilutions are made for a given inhibitor from 2, 3 or 4 starting concentrations with a total of 24, 36 or 48 individual inhibitor concentrations. These dilutions are performed utilizing the BioMek robotics system. The assay consists of 10 μL of 40 nM HIV-1 protease, 10 μL of the various inhibitor concentrations, and 20 μL of 200 μM substrate (40 μL total). The reaction is allowed to proceed for 90 min at room temperature, terminated with 40 μL of avidin beads and processed (supra vide). An inhibitor with a known K; is run in parallel to verify the validity of the assay. The data is processed utilizing a computer program employing a nonlinear least square analysis of the data to generate the Ki values.

[3] = Table I, read-out: HIV Protease FITC Assay Ki

Structure (SMILES) | inhibition at 0.123 µM (HIV-1 protease [1]; Table I, Dose 0.123 μM) [%] | inhibition at 0.37 µM (HIV-1 protease [1]; Table I, Dose 0.370 μM) [%] | inhibition at 1.1 µM (HIV-1 protease [1]; Table I, Dose 1.100 μM) [%] | inhibition at 3.3 µM (HIV-1 protease [1]; Table I, Dose 3.300 μM) [%] | inhibition at 10 µM (HIV-1 protease [1]; Table I, Dose 10.000 μM) [%] | inhibition at 30 µM (HIV-1 protease [1]; Table I, Dose 30.000 μM) [%] | Ki (HIV-1 protease [2]; [3]) | also measured
O=c1oc(C(CC2CC2)CC2CC2)cc(O)c1C(c1cccc(NS(=O)(=O)c2ccc3ccccc3n2)c1)C1CC1 (centres unmarked) [Example 103, N-(3-{Cyclopropyl-[6-(2-cyclopropyl-1-cyclopropylmethyl-ethyl)-4-hydroxy-2-oxo-2H-pyran-3-yl]-methyl}-phenyl)-2-quinolinesulfonamide] | 65.5 | 82.6 | 96.9 | 100 | 105 | 96 | 1.72 nM | –
CC[C@H](Cc1ccccc1)c1cc(O)c(C(c2cccc(NS(=O)(=O)c3ccccn3)c2)C2CC2)c(=O)o1 (single isomer, unassigned) [Example 142, N-(3-(R or S)-{Cyclopropyl-[6-(1-(R)-ethylphenethyl)-4-hydroxy-2-oxo-2H-pyran-3-yl]-methyl}-phenyl)-2-pyridinesulfonamide] | – | – | – | – | – | – | 1.6 nM | PROTEASE % INHIB. (HIV-1 protease [1]; Table I, Dose 0.123 μM): 78.01%; PROTEASE % INHIB. (HIV-1 protease [1]; Table I, Dose 0.370 μM): 92.52%; PROTEASE % INHIB. (HIV-1 protease [1]; Table I, Dose 1.100 μM): 106.64%; PROTEASE % INHIB. (HIV-1 protease [1]; Table I, Dose 3.300 μM): 105.15%; PROTEASE % INHIB. (HIV-1 protease [1]; Table I, Dose 10.000 μM): 110.58%; PROTEASE % INHIB. (HIV-1 protease [1]; Table I, Dose 30.000 μM): 106.77%
CCC(Cc1ccccc1)c1cc(O)c(C(c2cccc(NS(=O)(=O)c3ccc([N+](=O)[O-])cc3)c2)C2CC2)c(=O)o1 (centres unmarked) [Example 150, N-(3-{Cyclopropyl-[6-(1-ethylphenethyl)-4-hydroxy-2-oxo-2H-pyran-3-yl]-methyl}-phenyl)-4-nitrobenzenesulfonamide] | 78.4 | 96.5 | 100 | 103 | 107 | 109 | 5.9 nM | –
O=c1oc2c(c(O)c1C(c1cccc(NS(=O)(=O)c3ccccn3)c1)C1CC1)CCCCCC2 (centres unmarked) [Example 239] | 83.6 | 96.6 | 98.4 | 99.5 | 103 | 108 | 1.44 nM and 0.86 nM | –
COc1ccc2c(O)c(C(c3cccc(NS(=O)(=O)c4cn(C)cn4)c3)C3CC3)c(=O)oc2c1 (centres unmarked) [Example 152, N-(3-{Cyclopropyl-[7-methoxy-4-hydroxycoumarin-3-yl]-methyl}-phenyl)-1-methyl-1H-imidazole-4-sulfonamide] | – | – | – | – | – | – | – | inhibition at 0.123 µM (HIV-1 protease [1]): 11.5%; inhibition at 0.37 µM (HIV-1 protease [1]): 80.2%; inhibition at 1.1 µM (HIV-1 protease [1]): 95.8%; inhibition at 3.3 µM (HIV-1 protease [1]): 94.4%; inhibition at 10 µM (HIV-1 protease [1]): 95.5%; inhibition at 30 µM (HIV-1 protease [1]): 96.5%; Ki (HIV-1 protease [2]; HIV Protease FITC Assay Ki): 0.71 nM
CC[C@@H](Cc1ccccc1)c1cc(O)c(C(c2cccc(NS(=O)(=O)c3cn(C)cn3)c2)C2CC2)c(=O)o1 (single isomer, unassigned) [Example 140, N-(3-(R or S)-{Cyclopropyl-[6-(1-(S)-ethylphenethyl)-4-hydroxy-2-oxo-2H-pyran-3-yl]-methyl}-phenyl)-1-methyl-1H-imidazole-4-sulfonamide] | – | – | – | – | – | – | 1.44 nM | PROTEASE % INHIB. (HIV-1 protease [1]; Table I, Dose 0.123 μM): 103.22%; PROTEASE % INHIB. (HIV-1 protease [1]; Table I, Dose 0.370 μM): 96.01%; PROTEASE % INHIB. (HIV-1 protease [1]; Table I, Dose 1.100 μM): 107.37%; PROTEASE % INHIB. (HIV-1 protease [1]; Table I, Dose 3.300 μM): 112.51%; PROTEASE % INHIB. (HIV-1 protease [1]; Table I, Dose 10.000 μM): 112.53%; PROTEASE % INHIB. (HIV-1 protease [1]; Table I, Dose 30.000 μM): 119.14%
O=c1oc(C(CC2CC2)CC2CC2)cc(O)c1C(c1cccc(NS(=O)(=O)c2ccccn2)c1)C1CC1 (centres unmarked) [Example 99, N-(3-{Cyclopropyl-[6-(2-cyclopropyl-1-cyclopropylmethyl-ethyl)-4-hydroxy-2-oxo-2H-pyran-3-yl]-methyl}-phenyl)-2-pyridine-sulfonamide] | 85.7 | 102 | 108 | 100 | 107 | 103 | 0.66 nM | –
CCCC1(CCc2ccccc2)CC(O)=C(C(CC)c2cccc(NS(=O)(=O)c3ccc(C#N)cc3)c2)C(=O)O1 (centres unmarked) [Example 40, 4-Cyano-N-[3-[1-(4-hydroxy-2-oxo-6-phenethyl-6-propyl-5,6-dihydro-2H-pyran-3-yl)-propyl]-phenyl]-benzenesulfonamide] | 59.6 | 102 | 98.7 | 105 | 88.7 | 72.7 | 10.8 nM | –
COCCOCCOCCOc1ccc2c(O)c(C(c3cccc(NS(=O)(=O)c4cccc5cccnc45)c3)C3CC3)c(=O)oc2c1 (centres unmarked) [Example 153, N-(3-{Cyclopropyl-[7-(2-(2-(2-methoxyethoxy)-ethoxy)ethoxy)-4-hydroxycoumarin-3-yl]-methyl}-phenyl)-8-quinolinesulfonamide] | 81.3 | 91.1 | 100 | 104 | 103 | 101 | 1.85 nM | –
CN(c1cccc(C(c2c(O)c3c(oc2=O)CCCCCC3)C2CC2)c1)S(=O)(=O)c1ccc(F)cc1 (centres unmarked) [Example 193, 4-Fluoro-N-methyl-N-[3-[cyclopropyl(5,6,7,8,9,10-hexahydro-4-hydroxy-2-oxo-2H-cycloocta[b]pyran-3-yl)methyl]phenyl]-benzenesulfonamide] | 18.4 | 40.3 | 77.7 | 98.1 | 108 | 103 | 35 nM | –
CC[C@H](Cc1ccccc1)c1cc(O)c(C(c2cccc(NS(=O)(=O)c3nccn3C)c2)C2CC2)c(=O)o1 (single isomer, unassigned) [Example 144, N-(3-(R or S)-{Cyclopropyl-[6-(1-(R)-ethylphenethyl)-4-hydroxy-2-oxo-2H-pyran-3-yl]-methyl}-phenyl)-1-methyl-1H-imidazole-2-sulfonamide] | – | – | – | – | – | – | 1.2 nM | PROTEASE % INHIB. (HIV-1 protease [1]; Table I, Dose 0.123 μM): 80.58%; PROTEASE % INHIB. (HIV-1 protease [1]; Table I, Dose 0.370 μM): 87.39%; PROTEASE % INHIB. (HIV-1 protease [1]; Table I, Dose 1.100 μM): 93.82%; PROTEASE % INHIB. (HIV-1 protease [1]; Table I, Dose 3.300 μM): 100.01%; PROTEASE % INHIB. (HIV-1 protease [1]; Table I, Dose 10.000 μM): 98.12%; PROTEASE % INHIB. (HIV-1 protease [1]; Table I, Dose 30.000 μM): 95.88%
CC[C@H](Cc1ccccc1)c1cc(O)c(C(c2cccc(NS(=O)(=O)c3cn(C)cn3)c2)C2CC2)c(=O)o1 (single isomer, unassigned) [Example 138, N-(3-(R or S)-[Cyclopropyl-[6-(l-(R)-ethylphenethyl)-4-hydroxy-2-oxo-2H-pyran-3-yl]-methyl}-phenyl)-1-methyl-1H-imidazole-4-sulfonamide] | 101 | 95.5 | 101 | 99.6 | 94.8 | 105 | 0.73 nM and 1.4 nM | –
O=c1oc2c(c(O)c1C(c1cccc(CS(=O)(=O)c3ccccc3)c1)C1CC1)CCCCCC2 (centres unmarked) [Example 10, 3-[Cyclopropyl[3-[(phenylsulfonyl)methyl]phenyl]methyl]-5,6,7,8,9,10-hexahydro-4-hydroxy-2H-Cycloocta[b]pyran-2-one] | – | – | – | – | – | – | – | inhibition at 0.123 µM (HIV-1 protease [1]): 102%; inhibition at 0.37 µM (HIV-1 protease [1]): 112%; inhibition at 1.1 µM (HIV-1 protease [1]): 116%; inhibition at 3.3 µM (HIV-1 protease [1]): 119%; inhibition at 10 µM (HIV-1 protease [1]): 129%; inhibition at 30 µM (HIV-1 protease [1]): 130%; Ki (HIV-1 protease [2]; read-out: HIV Protease FITC Assay Ki): 5.71 nM
CCCC1(CCC)CC(O)=C(C(CC)c2cccc(NS(=O)(=O)c3cccc4cccnc34)c2)C(=O)O1 (single isomer, unassigned) [Example 54, (S or R)-N-[3-[1-(4-Hydroxy-2-oxo-6,6-dipropyl-5,6-dihydro-2H-pyran-3-yl)-propyl]-phenyl]-8-quinolinesulfonamide] | – | – | – | – | – | – | 13.3 nM | PROTEASE % INHIB. (HIV-1 protease [1]; Table I, Dose 0.123 μM): 46.64%; PROTEASE % INHIB. (HIV-1 protease [1]; Table I, Dose 0.370 μM): 72.41%; PROTEASE % INHIB. (HIV-1 protease [1]; Table I, Dose 1.100 μM): 87.91%; PROTEASE % INHIB. (HIV-1 protease [1]; Table I, Dose 3.300 μM): 89.11%; PROTEASE % INHIB. (HIV-1 protease [1]; Table I, Dose 10.000 μM): 87.77%; PROTEASE % INHIB. (HIV-1 protease [1]; Table I, Dose 30.000 μM): 91.99%
